Source: ChEMBL document CHEMBL4393671, “Design of a Cyclin G Associated Kinase (GAK)/Epidermal Growth Factor Receptor (EGFR) Inhibitor Set to Interrogate the Relationship of EGFR and GAK in Chordoma” (J Med Chem, 2019)
The source made the active and inactive calls. No cut-off for these calls is given here.

Experiments:
[1] = target: Receptor-interacting serine/threonine-protein kinase 2 (Homo sapiens) (UniProt O43353); assay: Binding affinity to RIPK2 in human SUM159 cell lysates by multiplexed inhibitor bead profiling-based LC-MS/MS analysis; type: subcellular; conditions: Lysate
Sequence of Receptor-interacting serine/threonine-protein kinase 2 (Homo sapiens) (O43353 whole entry): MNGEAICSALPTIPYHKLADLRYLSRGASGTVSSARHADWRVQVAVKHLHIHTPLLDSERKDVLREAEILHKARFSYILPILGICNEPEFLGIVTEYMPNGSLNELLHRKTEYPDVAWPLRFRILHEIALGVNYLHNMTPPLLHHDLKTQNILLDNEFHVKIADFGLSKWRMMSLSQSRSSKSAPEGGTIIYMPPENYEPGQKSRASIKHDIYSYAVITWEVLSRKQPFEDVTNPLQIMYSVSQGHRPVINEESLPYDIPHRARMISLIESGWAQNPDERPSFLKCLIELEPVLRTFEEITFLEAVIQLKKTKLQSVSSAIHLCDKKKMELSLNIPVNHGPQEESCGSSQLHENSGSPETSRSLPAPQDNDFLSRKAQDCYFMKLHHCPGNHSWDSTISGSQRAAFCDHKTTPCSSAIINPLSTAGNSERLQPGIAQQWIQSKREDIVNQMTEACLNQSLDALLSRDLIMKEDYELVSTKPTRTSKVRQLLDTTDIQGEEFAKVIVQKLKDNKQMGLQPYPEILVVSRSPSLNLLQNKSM

[2] = target: T1, STE20-related kinase adapter protein alpha (Homo sapiens) (UniProt Q7RTN6); assay: Binding affinity to LYK5 in human SUM159 cell lysates by multiplexed inhibitor bead profiling-based LC-MS/MS analysis; type: subcellular; conditions: Lysate
T1 sequence (whole entry): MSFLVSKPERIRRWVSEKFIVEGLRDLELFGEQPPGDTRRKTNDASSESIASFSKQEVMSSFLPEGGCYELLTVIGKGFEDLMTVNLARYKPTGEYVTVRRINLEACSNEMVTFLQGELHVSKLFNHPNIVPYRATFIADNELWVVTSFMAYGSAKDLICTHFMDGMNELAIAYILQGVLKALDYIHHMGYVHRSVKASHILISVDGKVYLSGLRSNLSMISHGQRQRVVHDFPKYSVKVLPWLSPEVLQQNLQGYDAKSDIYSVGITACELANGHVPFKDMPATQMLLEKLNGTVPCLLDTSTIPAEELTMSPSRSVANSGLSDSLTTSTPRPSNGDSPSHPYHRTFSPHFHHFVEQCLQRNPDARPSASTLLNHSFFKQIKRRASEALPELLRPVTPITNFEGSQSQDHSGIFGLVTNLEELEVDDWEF

[3] = cells; type: functional, cell-based; conditions: Homo sapiens, 72 h
Description: Antiproliferative activity against human CH22 cells measured after 72 hrs by alamar blue assay

[4] = cells; type: functional, cell-based; conditions: Homo sapiens, 72 h; remark: listed apart in the source
Description: Antiproliferative activity against human UCH12 cells measured after 72 hrs by alamar blue assay

[5] = target: T2, Epidermal growth factor receptor (Homo sapiens, UniProt P00533); assay: Inhibition of EGFR in human UCH2 cells assessed as reduction in EGF-induced EGFR phosphorylation at Y1068 residue at 10 uM preincubated for 4 hrs followed by EGF--stimulation and measured after 15 mins by Western blot analysis relative to control; type: cell-based
T2 sequence (P00533 whole entry): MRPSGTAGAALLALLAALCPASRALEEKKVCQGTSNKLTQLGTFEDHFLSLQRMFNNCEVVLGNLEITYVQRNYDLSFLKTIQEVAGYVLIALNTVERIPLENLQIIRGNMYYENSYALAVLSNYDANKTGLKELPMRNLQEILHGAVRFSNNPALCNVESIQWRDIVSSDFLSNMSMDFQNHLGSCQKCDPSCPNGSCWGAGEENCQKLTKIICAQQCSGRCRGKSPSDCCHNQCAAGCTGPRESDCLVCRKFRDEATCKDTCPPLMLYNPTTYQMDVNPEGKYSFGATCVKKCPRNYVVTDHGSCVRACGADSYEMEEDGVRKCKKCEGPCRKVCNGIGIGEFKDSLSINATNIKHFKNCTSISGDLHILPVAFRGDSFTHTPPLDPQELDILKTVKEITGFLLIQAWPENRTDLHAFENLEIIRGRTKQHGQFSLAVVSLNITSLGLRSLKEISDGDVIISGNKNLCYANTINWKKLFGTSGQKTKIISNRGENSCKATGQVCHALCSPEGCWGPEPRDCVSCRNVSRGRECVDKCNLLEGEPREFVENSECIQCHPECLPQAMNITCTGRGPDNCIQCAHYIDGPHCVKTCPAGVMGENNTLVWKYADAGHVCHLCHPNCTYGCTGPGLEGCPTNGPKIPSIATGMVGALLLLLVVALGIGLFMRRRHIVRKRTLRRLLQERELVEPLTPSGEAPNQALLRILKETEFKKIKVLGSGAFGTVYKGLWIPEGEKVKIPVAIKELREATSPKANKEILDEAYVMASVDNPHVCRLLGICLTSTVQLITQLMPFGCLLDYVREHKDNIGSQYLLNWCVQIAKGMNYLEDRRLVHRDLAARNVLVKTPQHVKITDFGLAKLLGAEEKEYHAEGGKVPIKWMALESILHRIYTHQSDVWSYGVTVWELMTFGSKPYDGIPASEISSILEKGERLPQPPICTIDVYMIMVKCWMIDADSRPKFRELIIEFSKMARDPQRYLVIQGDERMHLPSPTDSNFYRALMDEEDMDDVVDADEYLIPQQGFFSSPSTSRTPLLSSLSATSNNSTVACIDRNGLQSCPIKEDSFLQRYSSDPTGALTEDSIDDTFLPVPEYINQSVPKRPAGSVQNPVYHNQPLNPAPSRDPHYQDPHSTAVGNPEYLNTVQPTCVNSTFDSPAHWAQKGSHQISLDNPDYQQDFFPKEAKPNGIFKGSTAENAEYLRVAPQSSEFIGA

[6] = cells; type: functional, cell-based; conditions: Homo sapiens, 72 h; remark: listed apart in the source
Description: Antiproliferative activity against human UCH7 cells measured after 72 hrs by alamar blue assay

[7] = cells; type: functional, cell-based; conditions: Homo sapiens, 72 h; remark: listed apart in the source
Description: Antiproliferative activity against human UCH14 cells measured after 72 hrs by alamar blue assay

[8] = cells; type: ADME, cell-based; conditions: Homo sapiens, WS1, 72 h
Description: Cytotoxicity against human WS1 cells measured after 72 hrs by alamar blue assay

[9] = target: T2, Epidermal growth factor receptor; type: cell-based
Description: Inhibition of EGFR in human A431 cells assessed as reduction in EGF-stimulated EGFR autophosphorylation preincuabted for 90 mins followed by EGF-stimulation by sandwich-ELISA

[10] = cells; type: functional, cell-based; conditions: Homo sapiens, UCH2, 72 h
Description: Antiproliferative activity against human UCH2 cells measured after 72 hrs by alamar blue assay

[11] = target: T2, Epidermal growth factor receptor; assay: Inhibition of EGFR in human UCH1 cells assessed as reduction in EGF-induced EGFR phosphorylation at Y1068 residue at 10 uM preincubated for 4 hrs followed by EGF--stimulation and measured after 15 mins by Western blot analysis relative to control; type: cell-based
[12] = target: T3, Cyclin-G-associated kinase (Homo sapiens) (UniProt O14976); assay: Binding affinity to GAK in human SUM159 cell lysates by multiplexed inhibitor bead profiling-based LC-MS/MS analysis; type: subcellular; conditions: Lysate
T3 sequence (whole entry): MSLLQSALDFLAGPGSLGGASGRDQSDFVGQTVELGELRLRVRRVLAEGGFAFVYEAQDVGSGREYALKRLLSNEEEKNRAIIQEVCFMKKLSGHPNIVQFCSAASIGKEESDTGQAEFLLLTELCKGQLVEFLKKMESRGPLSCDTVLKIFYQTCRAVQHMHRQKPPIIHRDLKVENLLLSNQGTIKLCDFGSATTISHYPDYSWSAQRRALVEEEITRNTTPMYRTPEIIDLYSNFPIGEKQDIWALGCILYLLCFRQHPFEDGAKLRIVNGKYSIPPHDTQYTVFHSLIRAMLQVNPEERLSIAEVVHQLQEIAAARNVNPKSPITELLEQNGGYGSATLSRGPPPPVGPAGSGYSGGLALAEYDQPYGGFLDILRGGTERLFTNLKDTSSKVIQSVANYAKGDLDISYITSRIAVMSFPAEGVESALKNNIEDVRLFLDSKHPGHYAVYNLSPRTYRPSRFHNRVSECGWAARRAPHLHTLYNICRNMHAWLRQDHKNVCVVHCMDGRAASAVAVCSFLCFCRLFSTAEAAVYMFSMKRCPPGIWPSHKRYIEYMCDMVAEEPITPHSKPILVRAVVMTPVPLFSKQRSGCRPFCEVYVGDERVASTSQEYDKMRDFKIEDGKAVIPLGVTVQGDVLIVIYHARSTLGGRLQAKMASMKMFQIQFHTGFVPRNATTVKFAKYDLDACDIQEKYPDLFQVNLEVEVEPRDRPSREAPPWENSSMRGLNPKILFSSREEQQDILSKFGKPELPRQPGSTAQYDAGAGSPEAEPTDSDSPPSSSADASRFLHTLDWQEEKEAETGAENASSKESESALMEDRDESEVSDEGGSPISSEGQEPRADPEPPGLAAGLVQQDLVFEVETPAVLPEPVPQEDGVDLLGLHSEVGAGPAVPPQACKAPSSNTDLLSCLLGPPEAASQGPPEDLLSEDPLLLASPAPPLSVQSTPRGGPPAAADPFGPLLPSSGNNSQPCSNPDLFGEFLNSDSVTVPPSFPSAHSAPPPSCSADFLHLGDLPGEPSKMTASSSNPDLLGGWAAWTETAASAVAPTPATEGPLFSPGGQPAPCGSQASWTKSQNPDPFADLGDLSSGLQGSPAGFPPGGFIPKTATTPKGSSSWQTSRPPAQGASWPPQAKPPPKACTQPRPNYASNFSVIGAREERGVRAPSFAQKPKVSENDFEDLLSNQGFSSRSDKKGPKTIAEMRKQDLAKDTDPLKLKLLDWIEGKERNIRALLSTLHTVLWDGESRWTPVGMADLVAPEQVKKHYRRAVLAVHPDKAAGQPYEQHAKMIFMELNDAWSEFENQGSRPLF

[13] = target: T2, Epidermal growth factor receptor; assay: Inhibition of EGFR in human UCH2 cells assessed as reduction in EGF-induced EGFR phosphorylation at Y1068 residue at 1 uM preincubated for 4 hrs followed by EGF--stimulation and measured after 15 mins by Western blot analysis relative to control; type: cell-based

C#Cc1cccc(Nc2ccnc3cc(OC)c(OC)cc23)c1
Activity [1]: Active | Activity [2]: Active | IC50 [3]: 13 µM | IC50 [4]: 30 µM | inhibition [5]: 71.3% | IC50 [6]: 20 µM | IC50 [7]: 13 µM | IC50 [8]: 7.7 µM | IC50 [9]: 0.042 µM | IC50 [10]: > 50 µM | inhibition [11]: 60.8% | Activity [12]: Active | inhibition [13]: 0%
